Experimental data published in the CheMixHub ionic liquid set.

Experiment: xn = mol fraction of the nth substance listed

CCCC[n+]1ccn(C)c1.F[B-](F)(F)F + O + NCCO
100 kPa, x1 = 0.2723, x2 = 0.2627
Conditions | viscosity [mPa·s]
303 K | 16.89
308 K | 13.81
318 K | 9.78
323 K | 8.34

CCCCCCCCn1cc[n+](C)c1.O=S(=O)([N-]S(=O)(=O)C(F)(F)F)C(F)(F)F + O=C1CCCO1
100 kPa, frequency 0.005 MHz
Conditions | electrical conductivity [S/m]
293.15 K, x2 = 0.5048 | 0.325
298.15 K, x2 = 0 | 0.136
298.15 K, x2 = 0.6963 | 0.703
303.15 K, x2 = 0.9514 | 0.796
308.15 K, x2 = 0 | 0.207
313.15 K, x2 = 0.2993 | 0.401
318.15 K, x2 = 0 | 0.307
318.15 K, x2 = 0.0997 | 0.342
318.15 K, x2 = 0.8999 | 1.5
323.15 K, x2 = 0.2993 | 0.534
323.15 K, x2 = 0.9514 | 1.03

CCC[N+]1(C)CCCC1.O=S(=O)([N-]S(=O)(=O)C(F)(F)F)C(F)(F)F + O=C1CCCO1
101 kPa, frequency 0.0005 MHz
Conditions | electrical conductivity [S/m]
278.15 K, x1 = 0.3874 | 0.573
308.15 K, x1 = 0.1741 | 1.63
328.15 K, x1 = 0.06566 | 1.63
348.15 K, x1 = 0.1741 | 2.59
348.15 K, x1 = 0.3874 | 2.27
358.15 K, x1 = 0.06566 | 2.1

101 kPa
Conditions | viscosity [mPa·s]
278.15 K, x1 = 1 | 163.6
288.15 K, x1 = 0.1741 | 5.49
328.15 K, x1 = 0.1741 | 2.63
338.15 K, x1 = 0.06566 | 1.491
338.15 K, x1 = 0.1741 | 2.274
348.15 K, x1 = 0.1741 | 1.993
358.15 K, x1 = 0.1741 | 1.768
358.15 K, x1 = 1 | 10.34

CCC1COC(=O)O1 (centres undefined) + O=S(=O)([N-]S(=O)(=O)C(F)(F)F)C(F)(F)F.[Li+]
298.1 K, 100 kPa, x2 = 0.333
Conditions | electrical conductivity [S/m] | viscosity [mPa·s]
– | 0.02 | 323

CCC1COC(=O)O1 (centres undefined) + O=S(=O)([N-]S(=O)(=O)C(F)(F)F)C(F)(F)F.[Li+] + COC(=O)OC
298.15 K, 100 kPa
Conditions | viscosity [mPa·s]
x2 = 0.333, x3 = 0 | 323
x2 = 0.333, x3 = 0.3335 | 157
x2 = 0.333, x3 = 0.5002 | 93.7

CCCC[n+]1ccn(C)c1.F[B-](F)(F)F + OCC(F)(F)F
101 kPa, x2 = 0
Conditions | viscosity [mPa·s]
278.15 K | 360
283.15 K | 255
288.15 K | 186
293.15 K | 139
298.15 K | 106
303.15 K | 82.2
308.15 K | 65
313.15 K | 52.2
318.15 K | 42.6
323.15 K | 35.2
328.15 K | 29.5
333.15 K | 25

CC[n+]1ccn(C)c1.N#C[N-]C#N + OCC(F)(F)F
100 kPa
Conditions | viscosity [mPa·s]
298.15 K, x1 = 0.2936 | 4.06
298.15 K, x1 = 0.3935 | 5.03
303.15 K, x1 = 0.1031 | 2.18
303.15 K, x1 = 0.5915 | 6.32
308.15 K, x1 = 0.8915 | 8.72
313.15 K, x1 = 1 | 8.86
318.15 K, x1 = 0.1957 | 2.07
318.15 K, x1 = 0.2936 | 2.62
